# Assay results reported in patent publication US20230165973A1, “COMPOSITIONS AND METHODS FOR DELIVERING MESSENGER RNA” (ARBUTUS BIOPHARMA CORPORATION, priority 2013, published 2023).
# Where “and” joins values, the source holds several entries; their conditions need not be identical. Equal entries are not always repeated.
# How the values were obtained:
# [1] = tested on: naïve Balb/C mice; experiment: Luciferase liver model, aminolipid potency comparison (Example 2); type: in vivo, mouse; conditions: intravenously, 0.5 mg/kg total mRNA, six hours following injection
# Procedure: (§1) The experiments described in this Example 2 used a firefly luciferase mRNA (“mLuc”), fully modified with pseudouridine and 5-methylcytidine replacing uridine and cytidine respectively. The LNP formulation used in these studies have the following general lipid composition (molar ratios): PEG-lipid (PEG2000-C-DMA (1.6 mol %); appropriate aminolipid (54.6 mol %); cholesterol (32.8 mol %); and DSPC (10.9 mol %). A lipid stock was prepared with the appropriate lipids dissolved in ethanol (12.6 mM). The mLuc stock was made up in a 40 mM EDTA buffer at 0.366 mg/mL in 40 mM EDTA. The two stocks were combined using the Jeffs et al method (Pharm. Research (2005), 22(3), pages 362-372), blending in a t-connector and diluted into Phosphate Buffered Saline, pH 7.4. Buffer exchange was then performed via overnight bag dialysis against 10× volume of PBS. After dialysis, LNP were concentrated by centrifugation in Vivaspin-6 or Vivaspin-20 units (MWCO 100 k) from GE Healthcare. The LNP were then sterile filtered (0.2 μm filter). Concentration of the LNP was determined using RiboGreen and a Varian Cary Eclipse Fluorimeter. Particle size and polydispersity were determined using a Malvern Nano Series Zetasizer.
# LNP containing a luciferase mRNA payload were dosed at 0.5 mg/kg in naïve Balb/C mice (n=3). Six hours following injection, the mice were euthanized and livers were removed, weighed, and placed in lysing matrix tubes (containing one ceramic bead) on ice. PBS treatment groups were included to determine the background level of quenching of luciferase activity caused by the tissue homogenate in the Luciferase assay. Following collection, the tissues from these PBS treated animals were spiked with 50 μL of 100 ng/mL Luciferase solution in 1×CCLR (Cell Culture Lysis Reagent). Tissues were stored at −80° C. until Luciferase assay was performed.
# (§2) All sample processing procedures were performed on ice. Tissues were homogenized and centrifuged in an Eppendorf microfuge at 3000 rpm & 4° C. for 10 minutes. After centrifugation, 20 μL of homogenate was aliquoted in duplicate into a white 96-well luminometer plate. Firefly luciferase […] was then analyzed on the EG&G Berthold Microplate Luminometer LB using the Promega Luciferase Assay System. The luciferase activity within the wells was determined by comparing the resulting RLUs for the homogenates to a standard curve prepared from 20 μL of firefly luciferase. A quenching factor was assigned to each tissue to control for natural quenching from the homogenates. This was determined using luciferase-spiked tissue from PBS treated mice.
# The various formulations described were also assessed for potency in the mouse liver model. As an additional control, the use of the commercially available delivery reagent TransIT (Mirus) has been described in the literature for delivery of mRNA. A 0.05 mg/mL solution of TransIT-mRNA complex was prepared as follows. 50 μL of 1 mg/mL mRNA was added to 860 μL of DMEM, and to this solution the reagents from the TransIT-mRNA kit (Mirus) were added. In sequential order, 35 μL of the mRNA Boost reagent was added followed by 55 μL of the TransIT-mRNA reagent. The final solution was then incubated for 2-5 minutes before intravenous or intraperitoneal dosing.
# All formulations were administered intravenously at a dose of 0.5 mg/kg total mRNA.
# [2] = Formulability: LNP particle size, polydispersity and mRNA encapsulation (Example 2); type: physicochemical; conditions: mLuc LNP with the aminolipid at 54.6 mol %; 12.6 mM lipid stock
# Procedure: as §1
# The effect of the choice of aminolipid on parameters such as formulability and potency in the mRNA formulations was examined. As benchmarks, we selected the dilinoleyl lipids 5, 6, 7, and 8. […] We also selected a range of lipids with hydrophobic domains consisting of multiple (3 or 4) alkyl chains; 10, 9, 11, 13, 14, 17, and 18. Formulations were prepared as described above, using a 12.6 mM lipid stock.
# [3] = Reproducibility of lipid particle formulation; type: physicochemical; conditions: multiple mLuc LNP formulations; lipid stock 8.3-19.0 mM total lipid
# Procedure: Two aminolipids were selected to examine the reproducibility of lipid particle formulation. The benchmark dilinoleyl aminolipid MC3 was compared to the short trialkyl lipid 13-B43.
# Multiple formulations were made, using the following composition (expressed as molar percentages): PEG-lipid (PEG2000-C-DMA) (1.6 mol %); amino lipid (54.6 mol %); cholesterol (32.8 mol %); and DSPC (10.9 mol %), according to the general procedures described above. The lipid stock was prepared in ethanol (ranging from 8.3-19.0 mM total lipid). The mRNA stock was prepared at 0.366 mg/mL in 40 mM EDTA. Buffer exchange was then performed via overnight bag dialysis against 10× volume of PBS. Samples were then concentrated to […] mRNA by centrifugation in Vivaspin-20 units (MWCO 100 k) from GE Healthcare. The LNP were then sterile filtered. Concentration of the LNP was determined using RiboGreen and a Varian Cary Eclipse Fluorimeter. Particle size and polydispersity were determined using a Malvern Nano Series Zetasizer.
# [4] = tested on: Balb/C mice; experiment: Luciferase assay of Example 1 with tetraalkyl lipids, liver (Example 8); type: in vivo, mouse; conditions: particles comprising the lipid, assay described in Example 1
# Procedure: In the liver model, LNP were dosed at 0.5 mg/kg in the naïve Balb/C mice (n=5). Six hours following injection, the mice were euthanized and the livers were removed, weighed, and placed in lysing matrix tubes (containing one ceramic bead) on ice.
# as §2, with “rpm at” for “rpm &”, “resulting Relative Light Units (RLUs)” for “resulting RLUs”
# In particular, the tetraalkyl lipids mediated an enhanced level of delivery of luciferase mRNA to living cells than the established benchmark dialkyl lipid 8 shown in Table 8.
SMILES,% Encaps (Percentage Encapsulation) [2],PDI (polydispersity index) [2],Zavg (average lipid particle diameter) [2],Particle size [3],Polydispersity Index [3],Luciferase protein in ng per g of liver [1],% Encaps of mLuc [3],Activity in luciferase assay [4]
"CCCCC/C=C\C/C=C\CCCCCCCCC(OC(=O)CCCCN(C)CC)C(O)(CCCCCCCC/C=C\C/C=C\CCCCC)CCCCCCCC/C=C\C/C=C\CCCCC (stereo not drawn) [Compound 10, (6Z,9Z,29Z,32Z)-20-hydroxy-20-((9Z,12Z)-octadeca-9,12-dienyl)octatriaconta-6,9,29,32-tetraen-19-yl 5-(ethyl(methyl)amino)pentanoate]",,,,,,203.47 ng per g of liver,,
CCC/C=C\CCC(CC/C=C\CCC)CC(OC(=O)CCCCN(C)C)C(CC/C=C\CCC)CC/C=C\CCC (stereo not drawn) [Compound 18],88%,0.08,117 nm,,,1388.39 ng per g of liver,,
CCCCC/C=C\CCCC(CCC/C=C\CCCCC)C(CC/C=C\CCCCC)OC(=O)CCCCN(C)C (stereo not drawn) [Compound 19],78%,0.10,138 nm,,,,,
"CCCCCCCCC(CCCCCC)CC(CC(CCCCCC)CCCCCCCC)OC(=O)CCCCN(C)C (stereo not drawn) [Compound 35, 9,13-dihexylhenicosan-11-yl 5-(dimethylamino)pentanoate]",,,,,,,,"1,412,464 pg/g liver tissue"
"CCCCCCCCC(CCCCCC)CC(CC(CCCCCC)CCCCCCCC)OC(=O)CCCCCN(C)C (stereo not drawn) [Compound 37, 9,13-dihexylhenicosan-11-yl 6-(dimethylamino)hexanoate]",,,,,,,,"2,228,526 pg/g liver tissue"
"CCCCC/C=C\CCCC(CCC/C=C\CCCCC)C(CC(CCCC)CCCCCC)OC(=O)CCCCN(C)C (stereo not drawn) [Compound 43, (Z)-7-butyl-10-((Z)-dec-4-en-1-yl)icos-14-en-9-yl 5-(dimethylamino)pentanoate]",,,,,,,,"919,590 pg/g liver tissue"

# Second part, led by results:
% Encaps (Percentage Encapsulation) [2],PDI (polydispersity index) [2],Zavg (average lipid particle diameter) [2],Particle size [3],Polydispersity Index [3],SMILES,Luciferase protein in ng per g of liver [1],% Encaps of mLuc [3],Activity in luciferase assay [4]
50%,0.11,158 nm,134 nm and 151 nm and 158 nm and 119 nm,0.11 and 0.07 and 0.08 and 0.14 and 0.12,"CCCCC/C=C\C/C=C\CCCCCCCCC(CCCCCCCC/C=C\C/C=C\CCCCC)OC(=O)CCCN(C)C [Compound 7, (6Z,9Z,28Z,31Z)-heptatriaconta-6,9,28,31-tetraen-19-yl 4-(dimethylamino)butanoate]",369.85 ng per g of liver,56% and 63% and 49% and 50% and 69% and 52%,
57%,0.13,144 nm,,,CCCCC/C=C\C/C=C\CCCCCCCCC(CCCCCCCC/C=C\C/C=C\CCCCC)OCCCN(C)C [Compound 8],264.90 ng per g of liver,,"774,159 pg/g liver tissue"
62%,0.06,95 nm,,,CCCCC/C=C\CCCC(CCC/C=C\CCCCC)C(CCC/C=C\CCCCC)OC(=O)CCCN(C)C (stereo not drawn) [Compound 9],968.83 ng per g of liver,,
